Assay results published in patent US9540389B2, “Antimicrobial potentiators” (priority 2013, dated 2017).
≈ marks a conversion by molar mass, not a printed value.

Key:
[1] = system: Escherichia coli AB1157 ΔacrB; test: MIC assay (microbroth dilution); format: cell-based
Description: (§1) • Strains and Reagents. The following strains were obtained from the Keio collection (Baba, et al.: Construction of Escherichia coli K-12 in-frame, single-gene knockout mutants: the Keio collection. In Mol Syst Biol, vol. 2, pp. 2006 0008, (2006)): JW0451 (ΔacrB::kan), JW5503 (ΔtolC::kan), JW3234 (ΔacrF::kan), JW2661 (ΔemrB::kan), JW0863 (ΔmacB::kan). The deletion mutations in each of these strains were transferred to AB1157 using P1 phage transduction (see Table 1). The construction of the E. coli cell-based reporter strain (SOS-XXX) that was used for high throughput screening is described in detail in the supplementary information. […] Irgasan was a generous gift from Ciba Speciality Chemicals, Inc. (High Point, N.C.). Hoechst 33342 (H33342) was purchased from Molecular Probes (Eugene, Oreg.). […] Luria Broth (Miller) and agar were purchased as prepared dehydrated media from Becton Dickenson (Franklin Lakes, N.J.). The compound libraries used in high-throughput screens were purchased from Chembridge (San Diego, Calif.), ChemDiv (San Diego, Calif.), and TimTec (Newark, Del.). MBX2319 was synthesized by Microbiotix, Inc. • Antibacterial Activity Assays. The minimal inhibitory concentration (MIC) of antibacterial agents and biocides were determined using the microbroth dilution method essentially as described in the CLSI protocol M7-A7 (CLSI: Method for dilution antimicrobial susceptibility testing for bacteria that grow aerobically; Approved standard-document M7-A7. In Clinical and Laboratory Standards Institute document M7-A7, Clinical and Laboratory Standards Institute, Wayne, Pa., (2006)), with the following exceptions. LB media was used instead of MHB. […] The final concentration of DMSO in each assay was 2%. […] MIC assays were performed in triplicate and the geometric mean was calculated. Checkerboard MIC assays using an EPI and an antibacterial agent were performed essentially as described (Pillai, et al.: Antimicrobial Combinations. In Antibiotics in Laboratory Medicine, ed. by V. Lorian, pp. 365-440, Lippincott Williams & Wilkins, Philadelphia, Pa., (2005)), with the same modifications used for the MIC assays described above. • Time-Kill Assays. Killing curve assays were performed essentially as described (Pillai, et al.: Antimicrobial Combinations. In Antibiotics in Laboratory Medicine, ed. by V. Lorian, pp. 365-440, Lippincott Williams & Wilkins, Philadelphia, Pa., (2005)). Exponential bacterial cultures grown in LB were diluted to a cell density of ˜1×10^7 in LB followed by addition of CIP and/or an EPI. Viability was monitored over 2-4 hours by making serial dilutions in saline and spotting 5 μl of each dilution onto the surface of an LB agar plate in triplicate. Colonies were counted after the plates were incubated at 37° C. for 16-18 hr, colony forming units (CFU) per ml were calculated, and the average and standard deviation for the three replicates was determined. For treatments that decreased CFU/ml below the limit of detection for the spot plating method, the 100 μl samples were diluted into 5 ml LB top agar, were poured onto LB agar plates, and incubated for 18 hr at 37° C. To calculate the fraction of the control for each sample, the average CFU/ml values for treated samples were divided by those from the same sample at 0 h (time=0). Each experiment was repeated at least three times, and a representative experiment is shown. • H33342 Accumulation Assay. The rate of accumulation of the fluorescent dye Hoechst 33342 (H33342), which is a substrate of a wide variety of bacterial efflux pumps (van den Berg van Saparoea, et al., Biochemistry, vol. 44, pp. 16931-16938, (2005)), can be used to estimate the activity of the major efflux pumps in E. coli and many other bacterial species. The H33342 accumulation assay was used to evaluate the effect of EPIs on the activity of the AcrAB-TolC efflux pump in several bacterial species essentially as described (Coldham, et al., J Antimicrob Chemother, vol. 65, pp. 1655-1663, (2010)). […]

AcrAB-TolC efflux pump = AcrAB-TolC efflux pump (Escherichia coli, UniProt P31224); test: H33342 accumulation assay; format: cell-based, Escherichia coli 287; set-up: endogenous in cells; host or cells: E. coli strains 285 and 287 (ciprofloxacin-resistant mutants of AB1157); conditions: hyper-efflux strain 287
Sequence of AcrAB-TolC efflux pump (P02930 23-493): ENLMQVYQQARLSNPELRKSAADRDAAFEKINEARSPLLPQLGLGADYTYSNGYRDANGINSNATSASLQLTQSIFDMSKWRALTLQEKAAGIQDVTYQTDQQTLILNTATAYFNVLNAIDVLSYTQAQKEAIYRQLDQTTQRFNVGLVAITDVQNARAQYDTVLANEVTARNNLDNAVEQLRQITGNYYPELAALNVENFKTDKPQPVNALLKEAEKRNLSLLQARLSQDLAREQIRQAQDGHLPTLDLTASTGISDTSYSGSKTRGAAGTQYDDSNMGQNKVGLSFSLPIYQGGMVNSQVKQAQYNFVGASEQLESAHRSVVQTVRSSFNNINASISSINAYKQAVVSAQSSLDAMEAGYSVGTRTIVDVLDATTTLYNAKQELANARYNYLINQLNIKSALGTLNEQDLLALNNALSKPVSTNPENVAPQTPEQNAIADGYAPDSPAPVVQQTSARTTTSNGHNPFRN
Sequence of AcrAB-TolC efflux pump (P0AE06 25-397, further chain): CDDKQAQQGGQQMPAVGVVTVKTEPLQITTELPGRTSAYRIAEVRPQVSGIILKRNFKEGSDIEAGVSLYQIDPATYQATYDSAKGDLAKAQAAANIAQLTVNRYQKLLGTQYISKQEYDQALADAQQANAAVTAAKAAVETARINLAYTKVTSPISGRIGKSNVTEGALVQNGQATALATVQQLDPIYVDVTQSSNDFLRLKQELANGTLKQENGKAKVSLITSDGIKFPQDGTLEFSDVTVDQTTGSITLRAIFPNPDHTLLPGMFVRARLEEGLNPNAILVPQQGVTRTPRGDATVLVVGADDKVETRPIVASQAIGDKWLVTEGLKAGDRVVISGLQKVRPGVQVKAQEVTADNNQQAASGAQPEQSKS
Sequence of AcrAB-TolC efflux pump (P31224 whole entry): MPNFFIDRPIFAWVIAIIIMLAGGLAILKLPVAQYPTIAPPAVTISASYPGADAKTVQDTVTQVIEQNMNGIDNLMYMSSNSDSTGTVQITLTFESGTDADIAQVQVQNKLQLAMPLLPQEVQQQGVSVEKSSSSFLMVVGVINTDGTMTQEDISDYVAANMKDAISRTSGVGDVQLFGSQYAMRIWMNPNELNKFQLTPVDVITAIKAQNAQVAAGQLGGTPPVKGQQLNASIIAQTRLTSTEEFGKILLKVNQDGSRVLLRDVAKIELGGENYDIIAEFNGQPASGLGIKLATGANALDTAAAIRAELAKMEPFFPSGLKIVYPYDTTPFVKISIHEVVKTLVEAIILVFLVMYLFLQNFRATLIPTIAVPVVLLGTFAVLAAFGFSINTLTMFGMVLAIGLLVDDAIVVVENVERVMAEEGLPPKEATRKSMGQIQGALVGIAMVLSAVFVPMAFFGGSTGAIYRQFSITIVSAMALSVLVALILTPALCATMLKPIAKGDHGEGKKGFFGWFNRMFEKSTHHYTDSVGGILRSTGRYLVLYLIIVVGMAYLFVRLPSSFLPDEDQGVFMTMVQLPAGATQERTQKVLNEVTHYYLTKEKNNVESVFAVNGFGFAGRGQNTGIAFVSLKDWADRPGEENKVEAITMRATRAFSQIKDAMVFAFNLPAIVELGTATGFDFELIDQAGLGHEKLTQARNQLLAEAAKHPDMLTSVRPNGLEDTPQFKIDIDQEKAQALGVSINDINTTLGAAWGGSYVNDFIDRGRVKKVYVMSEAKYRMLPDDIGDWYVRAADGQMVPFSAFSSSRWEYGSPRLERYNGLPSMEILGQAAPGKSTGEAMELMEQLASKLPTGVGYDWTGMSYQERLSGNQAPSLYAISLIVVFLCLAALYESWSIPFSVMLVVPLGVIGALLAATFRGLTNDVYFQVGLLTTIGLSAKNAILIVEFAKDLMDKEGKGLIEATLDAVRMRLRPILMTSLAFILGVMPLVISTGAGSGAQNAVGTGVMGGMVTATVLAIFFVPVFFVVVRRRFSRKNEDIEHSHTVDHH

[2] = system: Escherichia coli AB1157 ΔemrB; test: Checkerboard MIC assay (antibacterial agent + MBX2319); format: cell-based; conditions: EmrB-defective mutant; data not shown
Description: as §1

[3] = system: Escherichia coli AB1157 ΔmacB; test: as above; format: cell-based; conditions: MacB-defective mutant; data not shown
Description: as §1

[4] = Solubility in phosphate buffers; format: physicochemical; conditions: phosphate buffer, aqueous buffer, read-out: solubility limit
[5] = H33342 accumulation assay; format: cell-based, Pseudomonas aeruginosa ATCC 27835; conditions: P. aeruginosa; 25 μM
[6] = system: diverse panel of E. coli strains; test: Cumulative MICs (MIC50, MIC90) for levofloxacin and piperacillin ± 25 μM MBX2319; format: cell-based, Escherichia coli; conditions: E. coli strain panel
Description: as §1, with “Exponential bacterial cultures grown in LB were diluted to a cell density of ˜1×10^7 in LB followed by addition of CIP and/or an EPI.” left out, “determined.” for “determined. For treatments that decreased CFU/ml below the limit of detection for the spot plating method, the 100 μl samples were diluted into 5 ml LB top agar, were poured onto LB agar plates, and incubated for 18 hr at 37° C. To calculate the fraction of the control for each sample, the average CFU/ml values for treated samples were divided by those from the same sample at 0 h (time=0). Each experiment was repeated at least three times, and a representative experiment is shown. • H33342 Accumulation Assay. The rate of accumulation of the fluorescent dye Hoechst 33342 (H33342), which is a substrate of a wide variety of bacterial efflux pumps (van den Berg van Saparoea, et al., Biochemistry, vol. 44, pp. 16931-16938, (2005)), can be used to estimate the activity of the major efflux pumps in E. coli and many other bacterial species. The H33342 accumulation assay was used to evaluate the effect of EPIs on the activity of the AcrAB-TolC efflux pump in several bacterial species essentially as described (Coldham, et al., J Antimicrob Chemother, vol. 65, pp. 1655-1663, (2010)).”

Compound	MIC ([1]; Escherichia coli, read-out: MICs (μg/ml) ΔacrB None) [µg/mL]	MIC Ratio ΔacrB ([1]; MIC WT/MIC ΔacrB)	H33342 accumulation (AcrAB-TolC efflux pump)	MIC shifts by MBX2319 [2]	MIC shifts by MBX2319 [3]	solubility [4] [µM]	H33342 accumulation [5]	decrease of MIC50 for LEV [6]	decrease of MIC90 for LEV [6]	effect on MIC50 for PIP [6]	effect on MIC90 for PIP [6]
CCN1CCN(C(=O)N[C@@H](C(=O)N[C@@H]2C(=O)N3[C@@H]2SC(C)(C)[C@@H]3C(=O)O)c2ccccc2)C(=O)C1=O [Piperacillin, piperacillin]	0.25	16									
CC1(C)Cc2c(C#N)c(SCCc3ccccc3)nc(N3CCOCC3)c2CO1 [MBX2319]			increased H33342 accumulation	MIC shifts similar to WT	MIC shifts similar to WT	15 to 20 (≈ 6.14 to 8.19 µg/mL)	weak activity	four fold	four fold	did not have a significant effect	did not have a significant effect
